Assay type in all cases: functional
The test system of one test is Micrococcus luteus. The test can be described thus: Antibacterial activity against Micrococcus luteus after 48 hrs by broth micro-dilution method.
For test [1], the system named is Trichophyton mentagrophytes. The test can be described thus: Antifungal activity against Trichophyton mentagrophytes after 96 hrs by broth micro-dilution method.
For another test, the system named is Escherichia coli. The test can be described thus: Antibacterial activity against Escherichia coli after 48 hrs by broth micro-dilution method.
The next test concerns Aspergillus niger. The test can be described thus: Antifungal activity against Aspergillus niger after 96 hrs by broth micro-dilution method.
The test system of another test is Bacillus subtilis. The test can be described thus: Antibacterial activity against Bacillus subtilis after 48 hrs by broth micro-dilution method.
In the next test the test system is Candida albicans. The test can be described thus: Antifungal activity against Candida albicans after 48 hrs by broth micro-dilution method.
The test system of another test is Cryptococcus neoformans. The test can be described thus: Antifungal activity against Cryptococcus neoformans after 96 hrs by broth micro-dilution method.
A further test has as its system Staphylococcus aureus. The test can be described thus: Antibacterial activity against Staphylococcus aureus after 48 hrs by broth micro-dilution method.

In brackets after ≈: the same amount, converted by molar mass. *1 amine or outer side, *2 acyl side, *3 side chain or, on linkers, in order; H or OH if unused. Where a SMILES comes first, the peptide text is derived from it. Bridges are numbered along the chain shown (N, C = ends). [ ]: non-standard residue; d: D form. The star is where a group is joined. hTyr(3S-OH,4S-OH,3'-OSO3H) = N[C@H](C(=O)O)[C@H](O)[C@@H](O)c1ccc(O)c(OS(=O)(=O)O)c1; Orn(4R-OH,5R-OH) = O=C([C@H](C[C@@H](O)[C@@H](O)N[*:3])N[*:1])[*:2]; Pro(3S-OH,4S-Me) = C[C@H]1CN[C@H](C(=O)O)[C@H]1O; X1 = CCCCCOc1ccc(-c2cc(-c3ccc(C(=O)*)cc3)no2)cc1; Gln(3R-OH) = NC(=O)C[C@@H](O)[C@H](N)C(=O)O; Hyp = O=C(O)[C@@H]1C[C@@H](O)CN1

For `Cc1cccc(O)c1C(=O)O[C@@H]1[C@@H](O)[C@H](O)[C@@H](NC(=O)c2cccc(O)c2)C[C@H]1OC(N)=O`, the MIC against Micrococcus luteus, against Escherichia coli, in the test on Bacillus subtilis and against Staphylococcus aureus was over 32 µg/mL in each case. The half-inhibitory concentration (IC50) in test [1] is over 32 µg/mL; with Aspergillus niger, over 32 µg/mL; in the test with Candida albicans it was over 32 µg/mL; with Cryptococcus neoformans, 32 µg/mL (≈ 69.5 µM).
Consider `CN[C@H]1C[C@@H](N)[C@H](O)[C@@H](O[C@@H]2O[C@H](CO)[C@H](O)[C@@H]3O[C@@]4(O[C@H]23)O[C@H]([C@@H](N)CO)[C@H](O)[C@H](O)[C@H]4O)[C@@H]1O`, for which the MIC stood at 1 µg/mL (≈ 1.9 µM) in the test with Micrococcus luteus, 2 µg/mL (≈ 3.79 µM) with Escherichia coli, 2 µg/mL (≈ 3.79 µM) in the test on Bacillus subtilis and 0.5 µg/mL (≈ 0.948 µM) against Staphylococcus aureus. Besides, the IC50 in test [1] was 1 µg/mL (≈ 1.9 µM); in the test on Aspergillus niger it was 1 µg/mL (≈ 1.9 µM); in the test on Candida albicans it was 3.9 µg/mL (≈ 7.39 µM); with Cryptococcus neoformans, 3.9 µg/mL (≈ 7.39 µM).
For `Cc1cccc(O)c1C(=O)O[C@H]1[C@H](O)[C@@H](O)[C@H](OC(N)=O)C[C@@H]1NC(=O)c1cccc(O)c1`, the MIC with Micrococcus luteus, in the test with Escherichia coli, in the test with Bacillus subtilis and with Staphylococcus aureus was over 32 µg/mL throughout. The IC50 in test [1] was over 32 µg/mL; in the test on Aspergillus niger it was over 32 µg/mL; in the test on Candida albicans it was over 32 µg/mL; in the test on Cryptococcus neoformans it was 16 µg/mL (≈ 34.7 µM).
Turning to `C[C@@H]1[C@H](O)[C@@H](C)/C=C/C=C/C=C/C=C/C=C/C=C/C=C/[C@H](O[C@@H]2O[C@H](C)[C@@H](O)[C@H](N)[C@@H]2O)C[C@@H]2O[C@](O)(C[C@@H](O)C[C@@H](O)[C@H](O)CC[C@@H](O)C[C@@H](O)CC(=O)O[C@H]1C)C[C@H](O)[C@H]2C(=O)O` [AMPHOTERICIN B], the MIC with Micrococcus luteus, with Escherichia coli, in the test on Bacillus subtilis and against Staphylococcus aureus was over 31.2 µg/mL each time. Moreover, the IC50 in test [1] was 3.9 µg/mL (≈ 4.22 µM); in the test on Aspergillus niger, 1.8 µg/mL (≈ 1.95 µM); in the test with Candida albicans it was 1 µg/mL (≈ 1.08 µM); in the test on Cryptococcus neoformans it was under 0.05 µg/mL.
With `NC[C@H]1O[C@H](O[C@H]2[C@H](O)[C@@H](O[C@H]3O[C@H](CO)[C@@H](O)[C@H](N)[C@H]3O)[C@H](N)C[C@@H]2N)[C@H](O)[C@@H](O)[C@@H]1O` [KANAMYCIN], the MIC in the test with Micrococcus luteus is 1 µg/mL (≈ 2.06 µM); in the test on Escherichia coli, under 0.1 µg/mL; against Bacillus subtilis, under 0.1 µg/mL; in the test on Staphylococcus aureus it was under 0.1 µg/mL. Also, the IC50 was 7.8 µg/mL (≈ 16.1 µM) in test [1], 31.3 µg/mL (≈ 64.6 µM) in the test with Aspergillus niger, over 62.5 µg/mL in the test on Candida albicans and 7.8 µg/mL (≈ 16.1 µM) in the test on Cryptococcus neoformans.
In the case of `CCCCCOc1ccc(-c2cc(-c3ccc(C(=O)N[C@H]4C[C@@H](O)[C@@H](O)NC(=O)[C@@H]5[C@@H](O)[C@@H](C)CN5C(=O)[C@H]([C@H](O)CC(N)=O)NC(=O)[C@H]([C@H](O)[C@@H](O)c5ccc(O)c(OS(=O)(=O)O)c5)NC(=O)[C@@H]5C[C@@H](O)CN5C(=O)[C@H]([C@@H](C)O)NC4=O)cc3)no2)cc1` [MICAFUNGIN] (X1-[Orn(4R-OH,5R-OH)]T[Hyp][hTyr(3S-OH,4S-OH,3'-OSO3H)][Gln(3R-OH)][Pro(3S-OH,4S-Me)]; lactam 1-C), the MIC against Micrococcus luteus was 7.8 µg/mL (≈ 6.14 µM); in the test with Escherichia coli, over 62.5 µg/mL; in the test with Bacillus subtilis, 0.5 µg/mL (≈ 0.394 µM); with Staphylococcus aureus, 0.5 µg/mL (≈ 0.394 µM). Further, the IC50 (in test [1]; with Aspergillus niger; with Candida albicans; with Cryptococcus neoformans) was under 0.1 µg/mL each time.

The values above are taken from ChEMBL document CHEMBL4038264, “Nabscessins A and B, Aminocyclitol Derivatives from Nocardia abscessus IFM 10029T” (J Nat Prod, 2017).
